This note sets out measurements from ChEMBL document CHEMBL1150924, “Triterpenes and saponins from Rudgea viburnioides” (J Nat Prod, 1998).

Activity calls are given as the source filed them. No cut-off for these calls is given here.

Holding throughout (assay type): functional, organism-based
Experiment [1] concerns Cladosporium cladosporioides. Kind of experiment: Antifungal activity against Cladosporium cladosporioides at 50 ug by TLC bioassay.
Experiment [2] relates to Cladosporium cladosporioides. Nature of the experiment: Antifungal activity against Cladosporium cladosporioides at 5 ug by TLC bioassay.
For experiment [3], the system named is Cladosporium cladosporioides. Nature of the experiment: Antifungal activity against Cladosporium cladosporioides at 1 ug by TLC bioassay.

On to `C[C@@H]1CC[C@]2(C)CC[C@]3(C)C(=CC[C@@H]4[C@@]5(C)C[C@@H](O)[C@H](O)C(CO)(CO)[C@@H]5CC[C@]43C)[C@@H]2[C@]1(C)O`, for which the result in experiment [1] was Active.
For the molecule NYSTATIN, the result in experiment [2] was Active.
Consider `Clc1ccc(COC(Cn2ccnc2)c2ccc(Cl)cc2Cl)c(Cl)c1` (stereo not drawn), for which, in experiment [3], the result was Active.
